Target: human P2X3 receptor (Homo sapiens (Human), UniProt P56373)
Assay: Evaluation of human P2X3 receptor inhibitory activity (Fluo-3 calcium fluorescence, FDSS 3000, ATP stimulation);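 note: stimulus was 50 nM ATP with fluorescence followed for 3 min, and the response per well was peak post-ATP fluorescence divided by the reading at measurement start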
Format: cell-based
[1] = human P2X3 receptor, Test Example 1
[2] = C6BU-1 cells stably expressing human P2X3 receptor, Fluo-3 fluorescence, FDSS 3000
[3] = C6BU-1 cells stably expressing human P2X3 receptor

Chain of human P2X3 receptor (P56373 whole entry): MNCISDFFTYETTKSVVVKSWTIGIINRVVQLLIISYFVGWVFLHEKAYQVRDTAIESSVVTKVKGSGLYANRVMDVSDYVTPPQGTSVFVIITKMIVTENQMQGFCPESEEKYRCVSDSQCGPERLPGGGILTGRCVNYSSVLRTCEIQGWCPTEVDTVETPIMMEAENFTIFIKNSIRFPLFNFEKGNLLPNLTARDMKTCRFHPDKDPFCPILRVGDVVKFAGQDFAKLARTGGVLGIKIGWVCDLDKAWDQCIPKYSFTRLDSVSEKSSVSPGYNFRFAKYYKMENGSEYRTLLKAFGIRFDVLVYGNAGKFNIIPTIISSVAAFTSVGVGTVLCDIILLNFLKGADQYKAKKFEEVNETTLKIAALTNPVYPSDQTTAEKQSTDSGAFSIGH

| Compound | IC50 [1] [nM] | IC50 [3] [nM] | also measured |
| --- | --- | --- | --- |
| NCCn1c(=O)[nH]/c(=N\c2ccc(Oc3ccon3)cc2)n(Cc2ccc(Cl)cc2)c1=O [Compound I-2523] | 169 | – | – |
| Cc1nc2ccc(/N=c3\[nH]c(=O)n(CC4(C)COC(C)(C)OC4)c(=O)n3Cc3ccc(Cl)cc3)cc2s1 [Compound I-1635] | – | – | IC50 [2]: 5 nM |
| CC(=O)Nc1cc(Oc2ccc(/N=c3\[nH]c(=O)[nH]c(=O)n3Cc3ccc(Cl)cc3)cc2)ccn1 [Compound I-2430] | 48 | – | – |
| C[C@H](C(N)=O)n1c(=O)[nH]/c(=N\c2ccc(Oc3ccon3)cc2)n(Cc2ccc(Cl)cc2)c1=O [Compound I-2500] | 67 | – | – |
| CCOc1ccc(/N=c2\[nH]c(=O)n(CCCC(=O)O)c(=O)n2Cc2ccc(C)cc2)cc1Cl [Compound I-0874] | 86 | – | – |
| CCn1c(=O)[nH]/c(=N\c2ccc(Oc3ccc(OC)nc3)cc2)n(Cc2ccc(Cl)cc2)c1=O [Compound I-1847] | – | – | IC50 [2]: 6 nM |
| COC(=O)[C@@H](C)Cn1c(=O)[nH]/c(=N\c2ccc(Oc3cccnc3C)cc2)n(Cc2ccc(C)cc2)c1=O [Compound I-1208] | – | 21 | – |
| CCOc1ccc(/N=c2\[nH]c(=O)n(C[C@H]3COC(C)(C)O3)c(=O)n2Cc2ccc(Cl)cc2)cc1Cl [Compound I-1887] | – | – | IC50 [2]: 3 nM |
| CCn1c(=O)[nH]/c(=N\c2ccc(Oc3ccnc(C(=O)O)c3)cc2)n(CC2CCC(C)(C)CC2)c1=O [Compound I-2208] | – | 12 | – |
| COC(=O)[C@@H](C)Cn1c(=O)[nH]/c(=N\c2cccc(OC)c2)n(Cc2ccc(C)cc2)c1=O [Compound I-1201] | – | 788 | – |
| CCCc1ccc(/N=c2\[nH]c(=O)n(CCC(=O)OCC)c(=O)n2Cc2ccc(Cl)cc2)cc1C [Compound I-1250] | – | 54 | – |
| CCOC(=O)C1(Cn2c(=O)[nH]/c(=N\c3ccc(OC(C)C)c(C)c3)n(Cc3ccc(C)cc3)c2=O)CC1 [Compound I-0941] | – | – | IC50 [2]: 5 nM |
| CCn1c(=O)[nH]/c(=N\c2ccc(Oc3ccnc(C(=O)O)c3)cc2)n(Cc2ccc(F)cc2)c1=O [Compound I-2360] | 11 | – | – |
| CCCOc1ccc(/N=c2\[nH]c(=O)n(C[C@H](C)C(=O)OC)c(=O)n2Cc2ccc(Cl)cc2)cc1Cl [Compound I-0743] | – | 13 | – |
| COC(=O)[C@@H](C)[C@@H](C)n1c(=O)[nH]/c(=N\c2ccc(Oc3ccc(C)nc3)cc2)n(Cc2ccc(Cl)cc2)c1=O [Compound I-1376] | – | 15 | – |
| Cc1[nH]c2ccc(/N=c3\[nH]c(=O)n(CCCO)c(=O)n3Cc3ccc(Cl)cc3)cc2c1C [Compound I-1949] | – | 5 | – |
| COC(=O)[C@@H](C)Cn1c(=O)[nH]/c(=N\c2ccc(Oc3ccnc(O)c3)cc2)n(Cc2ccc(C)cc2)c1=O [Compound I-1432] | – | 2 | – |
| COC(=O)[C@@H](C)[C@@H](C)n1c(=O)[nH]/c(=N\c2ccc(CC(C)C)c(Cl)c2)n(Cc2ccc(Cl)cc2)c1=O [Compound I-1438] | – | 63 | – |
| COc1ccc(Oc2ccc(/N=c3\[nH]c(=O)n(CC(N)=O)c(=O)n3Cc3ccc(Cl)cc3)cc2)cn1 [Compound I-1856] | – | – | IC50 [2]: 8 nM |
| Cc1ccc(Cn2c(=O)n([C@H](C)[C@H](C)C(=O)O)c(=O)[nH]/c2=N\c2ccc(OC(C)C)c(Cl)c2)cc1 [Compound I-1337] | – | 14 | – |
| CCn1c(=O)[nH]/c(=N\c2ccc(Sc3ccc(C(=O)OC)cc3)cc2)n(Cc2ccc(Cl)cc2)c1=O [Compound I-2597] | 215 | – | – |
| Cc1ccc(Cn2c(=O)n([C@H](C)[C@H](C)C(=O)O)c(=O)[nH]/c2=N\c2ccc3nc(C)sc3c2)cc1 [Compound I-1468] | – | 10 | – |

| Compound | IC50 [1] [nM] | IC50 [3] [nM] | also measured |
| --- | --- | --- | --- |
| CCc1nc2ccc(/N=c3\[nH]c(=O)n(CC(=O)OC)c(=O)n3Cc3ccc(Cl)cc3)cc2s1 [Compound I-1752] | – | – | IC50 [2]: 4 nM |
| Cn1c(=O)[nH]/c(=N\c2ccc(Oc3ccnc(C(N)=O)c3)cc2)n(Cc2ccc(Cl)cc2)c1=O [Compound I-2378] | 6 | – | – |
| COC(=O)[C@@H](C)Cn1c(=O)[nH]/c(=N\c2ccc(OC3CC3)cc2)n(Cc2ccc(C)cc2)c1=O [Compound I-1514] | 24 | – | – |
| CCc1cc2cc(/N=c3\[nH]c(=O)n(C[C@H]4COC(C)(C)O4)c(=O)n3Cc3ccc(Cl)cc3)ccc2o1 [Compound I-2314] | 7 | – | – |
| O=c1[nH]/c(=N\c2ccc(Oc3ccon3)cc2)n(Cc2ccc(F)cc2)c(=O)n1CCCOC1CCCCO1 (stereo not shown) [Compound I-2394] | 21 | – | – |
| COC(=O)[C@@H](C)Cn1c(=O)[nH]/c(=N\c2ccc(N3CCCCC3)cc2)n(Cc2ccc(Cl)cc2)c1=O [Compound I-0954] | – | – | IC50 [2]: 23 nM |
| COC(=O)[C@@H](C)Cn1c(=O)[nH]/c(=N\c2ccc(Cc3ccncc3)cc2)n(Cc2ccc(C)cc2)c1=O [Compound I-1241] | – | 108 | – |
| CCn1c(=O)[nH]/c(=N\c2ccc3oc(C)c(CCO)c3c2)n(Cc2ccc(Cl)cc2)c1=O [Compound I-2171] | – | 296 | – |
| CCn1c(=O)[nH]/c(=N\c2ccc(Oc3nc(O)nc(O)n3)cc2)n(Cc2ccc(Cl)cc2)c1=O [Compound I-2222] | – | 5 | – |
| CCOc1ccc(/N=c2\[nH]c(=O)n([C@@H](C)[C@@H](C)C(=O)OC)c(=O)n2Cc2ccc(C)cc2)cc1Cl [Compound I-0966] | – | – | IC50 [2]: 17 nM |
| C=Cc1ccc(Cn2c(=O)n(C[C@H](C)C(=O)OC)c(=O)[nH]/c2=N\c2ccc(OC(C)C)c(C)c2)cc1 [Compound I-0892, (S)-1-(4-vinylbenzyl)-6-(3-mehyl-4-isopropoxyphenylimino)-3-(2-methoxycarbonylpropyl)-1,3,5-triazinane-2,4-dion] | 18 | – | – |
| Cc1cc(/N=c2\[nH]c(=O)n([C@@H]3CCOC3=O)c(=O)n2Cc2ccc(Cl)cc2)ccc1OC(C)C [Compound I-0808] | – | 203 | – |
| Cn1c(=O)[nH]/c(=N\c2ccc(Oc3nc(C(N)=O)cs3)cc2)n(Cc2ccc(Cl)cc2)c1=O [Compound I-2415] | 9 | – | – |
| COC(=O)[C@@H](C)Cn1c(=O)[nH]/c(=N\c2ccc(CC3CCCC3)cc2)n(Cc2ccc(C)cc2)c1=O [Compound I-1096] | – | – | IC50 [2]: 94 nM |
| CCn1c(=O)[nH]/c(=N\c2ccc(Oc3ccc(C(=O)O)nc3)cc2)n(Cc2ccc(C)cc2)c1=O [Compound I-2116] | – | 15 | – |
| CCn1c(=O)[nH]/c(=N\c2ccc(Oc3cccc(C(N)=O)c3)cc2)n(Cc2ccc(Cl)cc2)c1=O [Compound I-1925] | – | 6 | – |
| Cc1nsc(Oc2ccc(/N=c3\[nH]c(=O)n(C[C@@H](O)CO)c(=O)n3Cc3ccc(Cl)cc3)cc2)n1 [Compound I-2577] | 8 | – | – |
| CCn1c(=O)[nH]/c(=N\c2ccc(Oc3ccon3)cc2)n(Cc2ccc(Cl)cc2)c1=O [Compound I-2357] | 12 | – | – |
| COC(=O)[C@@H](C)Cn1c(=O)[nH]/c(=N\c2cccc(SC)c2)n(Cc2ccc(Cl)cc2)c1=O [Compound I-1151] | – | – | IC50 [2]: 46 nM |
| Cc1ccc(Cn2c(=O)n(CCC(=O)O)c(=O)[nH]/c2=N\c2ccc(OC3CCC3)c(C)c2)cc1 [Compound I-1406] | – | 64 | – |
| CCOC(=O)CN(C(=O)OC(C)(C)C)c1cc(Oc2ccc(/N=c3\[nH]c(=O)n(CC)c(=O)n3Cc3ccc(Cl)cc3)cc2)ccn1 [Compound I-2540] | 104 | – | – |
| Cc1ccc(Cn2c(=O)n(C[C@H](C)C(=O)O)c(=O)[nH]/c2=N\c2ccc(OC(C)C)c(O)c2)cc1 [Compound I-1134] | – | – | IC50 [2]: 35 nM |

| Compound | IC50 [1] [nM] | IC50 [3] [nM] | also measured |
| --- | --- | --- | --- |
| COc1ccc(/N=c2\[nH]c(=O)n(C[C@H](C)C(=O)O)c(=O)n2Cc2ccc(Cl)cc2)cc1Cl [Compound I-0724] | – | 250 | – |
| CCOC(=O)CCn1c(=O)[nH]/c(=N\c2ccc(OC(C)C)c(COC(C)=O)c2)n(Cc2ccc(C)cc2)c1=O [Compound I-1425] | – | 50 | – |
| CCn1c(=O)[nH]/c(=N\c2ccc(Oc3nccc(OC)n3)cc2)n(Cc2ccc(Cl)cc2)c1=O [Compound I-2096] | – | 35 | – |
| Cc1cc2cc(/N=c3\[nH]c(=O)n([C@@H](C)[C@@H](C)C(=O)O)c(=O)n3Cc3ccc(Cl)cc3)ccc2o1 [Compound I-1351] | – | 41 | – |
| CCCc1ccc(Cn2c(=O)n(C[C@H](C)C(=O)OC)c(=O)[nH]/c2=N\c2ccc(OC(C)C)cc2)cc1 [Compound I-1144] | – | – | IC50 [2]: 764 nM |
| CCc1cc2cc(/N=c3\[nH]c(=O)n(C[C@H](C)C(=O)O)c(=O)n3Cc3ccc(Cl)cc3)ccc2s1 [Compound I-1964] | – | 277 | – |
| COc1cc(/N=c2\[nH]c(=O)n(C[C@H](O)CO)c(=O)n2Cc2ccc(Cl)cc2)ccc1OC(C)C [Compound I-2004] | – | 13 | – |
| COCCn1c(=O)[nH]/c(=N\c2ccc(Oc3cccc(C#N)n3)cc2)n(Cc2ccc(Cl)cc2)c1=O [Compound I-2538] | 3 | – | – |
| CCOC(=O)CC(C)(C)n1c(=O)[nH]/c(=N\c2ccc(OC(C)C)c(C)c2)n(Cc2ccc(Cl)cc2)c1=O [Compound I-0805] | – | 29 | – |
| Cc1ccc(Cn2c(=O)n(C)c(=O)[nH]/c2=N\c2ccc(Oc3cc(C(=O)O)ncn3)cc2)cc1 [Compound I-2445] | 13 | – | – |
| COC(=O)C(C)(C)Cn1c(=O)[nH]/c(=N\c2ccc3nc(C)sc3c2)n(Cc2ccc(C)cc2)c1=O [Compound I-1571] | – | – | IC50 [2]: 4 nM |
| COC(=O)c1ccc(Oc2ccc(/N=c3\[nH]c(=O)n(C)c(=O)n3Cc3ccc(Cl)cc3)cc2)cn1 [Compound I-2402] | 3 | – | – |
| O=C(O)c1cncc(Oc2ccc(/N=c3\[nH]c(=O)n(CC(F)F)c(=O)n3Cc3ccc(Cl)cc3)cc2)c1 [Compound I-2215] | – | 6 | – |
| Cc1ccc(Cn2c(=O)n(C)c(=O)[nH]/c2=N\c2ccc(Oc3ccc(C(=O)O)nn3)cc2)cc1 [Compound I-2382] | 54 | – | – |
| COc1ccc(CNc2nc(=O)n(Cc3ccc(Cl)cc3)/c(=N/c3ccc(OC(C)C)cc3)[nH]2)c(OC)c1 [Compound I-2252] | 769 | – | – |
| C[C@@H](C(=O)O)[C@H](C)n1c(=O)[nH]/c(=N\c2ccc3c(c2)CCO3)n(Cc2ccc(Cl)cc2)c1=O [Compound I-1833] | – | – | IC50 [2]: 580 nM |
| COC(=O)[C@H](C)[C@H](C)n1c(=O)[nH]/c(=N\c2ccc(CC(C)C)c(OC)c2)n(Cc2ccc(C)cc2)c1=O [Compound I-1364] | – | 43 | – |
| CCn1c(=O)[nH]/c(=N\c2ccc(Oc3ccc(C(N)=O)nc3)cc2)n(Cc2ccc(Cl)cn2)c1=O [Compound I-2279] | 33 | – | – |
| Cc1ccc(Cn2c(=O)n(CCC(=O)O)c(=O)[nH]/c2=N\c2cn(C)nc2C(=O)NC(C)C)cc1 [Compound I-1839] | – | – | IC50 [2]: 107 nM |
| Cc1ccc(Oc2ccc(/N=c3\[nH]c(=O)n(CC(=O)O)c(=O)n3Cc3ccc(Cl)cc3)cc2)cn1 [Compound I-1934] | – | 198 | – |
